From patent publication US6685617B1, “Inhibitors of α4β1 mediated cell adhesion” (Pharmacia & Upjohn Company, priority 1998, dated 2004)

How the values were obtained:
[1] = molecular target: T1, α4β1 integrin (Jurkat T-cell adhesion to IL-1 stimulated endothelial cell monolayers) (Homo sapiens, UniProt P05556+P13612); experiment: Jurkat-endothelial cell adhesion assay (Jurkat EC); type: cell-based; settings: Jurkat cells on IL-1 stimulated human umbilical vein endothelial cells; read-out: JK/EC (Jurkat EC Assay IC50 value range)
T1 construct: a T-cell line, Jurkat, known to express the α4β1 integrin; host or cells: Jurkat T-cell line
T1 sequence (P13612 34-1032): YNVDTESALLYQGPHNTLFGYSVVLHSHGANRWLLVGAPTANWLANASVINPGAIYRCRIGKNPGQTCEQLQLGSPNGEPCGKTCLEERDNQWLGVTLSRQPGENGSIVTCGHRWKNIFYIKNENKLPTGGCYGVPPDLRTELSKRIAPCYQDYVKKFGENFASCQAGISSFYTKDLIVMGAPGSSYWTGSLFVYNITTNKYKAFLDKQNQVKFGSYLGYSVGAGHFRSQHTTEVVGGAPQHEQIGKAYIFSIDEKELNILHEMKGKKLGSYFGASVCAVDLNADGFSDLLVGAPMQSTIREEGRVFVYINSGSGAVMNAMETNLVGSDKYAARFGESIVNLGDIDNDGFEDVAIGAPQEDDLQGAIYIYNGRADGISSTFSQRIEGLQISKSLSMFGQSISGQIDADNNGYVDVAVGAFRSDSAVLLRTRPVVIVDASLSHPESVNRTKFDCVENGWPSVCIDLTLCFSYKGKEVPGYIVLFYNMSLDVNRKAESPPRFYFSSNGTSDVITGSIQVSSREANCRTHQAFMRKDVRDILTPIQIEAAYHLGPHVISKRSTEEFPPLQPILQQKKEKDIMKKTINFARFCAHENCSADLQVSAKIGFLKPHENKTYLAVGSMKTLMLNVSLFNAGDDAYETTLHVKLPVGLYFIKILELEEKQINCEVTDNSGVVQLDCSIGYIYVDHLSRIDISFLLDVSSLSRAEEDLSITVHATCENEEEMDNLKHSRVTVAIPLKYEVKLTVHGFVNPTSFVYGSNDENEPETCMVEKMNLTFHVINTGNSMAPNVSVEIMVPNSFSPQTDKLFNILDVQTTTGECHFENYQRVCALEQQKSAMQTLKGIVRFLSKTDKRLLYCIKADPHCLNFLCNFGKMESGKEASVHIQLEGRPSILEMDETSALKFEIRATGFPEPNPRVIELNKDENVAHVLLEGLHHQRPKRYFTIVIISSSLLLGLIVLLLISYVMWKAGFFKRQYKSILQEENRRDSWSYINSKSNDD
T1 sequence (P05556 21-798): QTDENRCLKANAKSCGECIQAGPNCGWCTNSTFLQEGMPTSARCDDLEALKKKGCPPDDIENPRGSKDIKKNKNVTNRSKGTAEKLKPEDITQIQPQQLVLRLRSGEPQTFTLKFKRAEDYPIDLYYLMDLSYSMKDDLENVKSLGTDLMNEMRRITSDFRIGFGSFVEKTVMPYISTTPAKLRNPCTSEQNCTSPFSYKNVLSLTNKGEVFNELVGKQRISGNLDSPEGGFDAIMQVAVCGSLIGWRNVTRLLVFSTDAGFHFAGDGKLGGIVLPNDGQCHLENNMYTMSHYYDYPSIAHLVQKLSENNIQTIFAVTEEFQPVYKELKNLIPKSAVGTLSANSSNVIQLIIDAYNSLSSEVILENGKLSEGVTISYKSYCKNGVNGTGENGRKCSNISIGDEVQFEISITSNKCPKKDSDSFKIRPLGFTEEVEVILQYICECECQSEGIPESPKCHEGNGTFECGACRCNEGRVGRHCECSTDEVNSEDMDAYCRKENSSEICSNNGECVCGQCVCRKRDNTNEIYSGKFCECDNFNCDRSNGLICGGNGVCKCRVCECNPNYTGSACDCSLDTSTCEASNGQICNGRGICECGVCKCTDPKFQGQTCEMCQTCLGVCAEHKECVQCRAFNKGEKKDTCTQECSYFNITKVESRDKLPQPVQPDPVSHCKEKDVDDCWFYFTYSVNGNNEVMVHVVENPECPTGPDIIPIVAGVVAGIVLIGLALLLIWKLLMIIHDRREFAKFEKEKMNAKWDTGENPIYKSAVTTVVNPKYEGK
Experimental: Jurkat-endothelial Cell Adhesion Assay:
The following assay established the activity of the present compounds in inhibiting β1-mediated cell adhesion in a representative in vitro system. This assay measures the adhesive interactions of a T-cell line, Jurkat, known to express the α4β1 integrin, to endothelial monolayers in the presence of test compounds. The test compounds were added in increasing concentrations to T-cells and then the T-cell compound mixture was added to IL-1 stimulated endothelial cell monolayers. The plates were incubated, washed and the percentage of attached cells was quantitated.
Human umbilical vein endothelial cells were purchased from Clonetics (San Diego, Calif.) at passage number 2. The cells were grown on 0.5% porcine skin gelatin pre-coated flasks (Sigma, St. Louis Mo.) in EGM-UV media (Clonetics, San Diego, Calif.) supplemented with 10% fetal bovine serum. Cells are refed every 2-3 days reaching confluence by day 4 to 6. […] The endothelial cells are not used following passage 6.
The T-cell line Jurkat was obtained from American Type Tissue Culture Collection (Rockville, Md.) and the cells were cultured in RPMI containing 10% fetal calf serum. The cells were washed twice in Hank's Balanced Salt Solution (HBSS) and resuspended in Dulbecco's Minimal Eagle's Media (DMEM) containing 2.5 mg/ml Human Serum Albumin (HSA). Jurkat cells (1×10^6 cells/ml) were stained with 10 ng/ml BCECF-AM (Molecular Probes, Eugene, Oreg.)) in HBSS without phenol red. The cells were loaded with BCECF for 60 minutes in the dark at 370C, washed 2 times, and resuspended in DMEM-HSA solution.
Confluent endothelial monolayers, grown in 96-well tissue culture plates, were stimulated for 4 hr. at 37° C. with 0.1 ng/ml (˜50 U/ml) recombinant IL-1 (Amgen, Thousand Oaks, Calif.). Following this incubation, the monolayers were washed twice with HBSS and 0.1 ml of DMEM−HSA solution was added. Jurkat cells (5×10^5 cells) were combined with the appropriate concentration of the test compound and 0.1 ml of the Jurkat cell-compound mixture was added to the endothelial cell monolayers. Generally, 100, 20, 5 and 1.25 μM compound concentrations were tested. […] The plates were placed on ice for 5 minutes to allow for Jurkat cell settling and the plates were incubated at 37° C. for 20 minutes. Following this incubation, the monolayers were washed twice with PBS containing 1 mM calcium chloride and 1 mM magnesium chloride and the plates were read using a Millipore Cytofluor 2300 (Marlboro, Mass.). Fluorescence in each well was measured as Arbitrary Fluorescence Units and percent adhesion in the absence of compound was adjusted to 100% and the % adhesion in the presence of compound was calculated. Monolayers were also fixed in 3% paraformaldehyde and evaluated microscopically to verify the adhesion. This procedure is a modification of a previously published method (Cardarelli et al., J. Biol. Chem. 269:18668-18673 (1994)).

[2] = molecular target: T2, α4β1 integrin (Jurkat cell adhesion to immobilized CS-1 derived peptide CLHPGEILDVPST) (Homo sapiens, UniProt P05556+P13612); experiment: Jurkat-CS-1 assay; type: cell-based; settings: Jurkat cells on CS-1 peptide coated plates; read-out: JK/CS-1 (Jurkat CS-1 Assay IC50 value range)
T2 construct: 100 μl of Jurkat cells (2.5×10^6 cells/ml) in DMEM plus BSA; host or cells: Jurkat T-cell line
T2 sequence (P13612 34-1032): as the sequence (P13612 34-1032) above
T2 sequence (P05556 21-798): as the sequence (P05556 21-798) above
Experimental: The CS-1 derived peptide, CLHPGEILDVPST, and the scrambled control peptide, CLHGPIELVSDPT, were synthesized on a Beckman 990 synthesizer using t-Boc methodology. The peptides were immobilized onto microtiter plates using the heterobifunctional crosslinker 3-(2-pyridyldithio)propionic acid N-hydroxysuccinimide ester (SPDP) as reported by Pierschbacher et al., Proc. Natl. Acad. USA, 80:1224-1227 (1983). Microtiter plates were coated with 20 μg/ml HSA for 2 hr. at room temperature, washed once with PBS and derivatized with 10 μg/ml SPDP for 1 hr. After washing, 100 μl of a 100 μg/ml cysteine containing peptide solution which had been recently dissolved was added to the wells and allowed to crosslink to the plates overnight at 4° C. Unbound peptide was removed from plates by washing with PBS. To block non-reacted sites, the plates are coated with 100 μl of a 2.5 mg/ml BSA solution in PBS for 1 hr. at 37° C. 100 μl of Jurkat cells (2.5×10^6 cells/ml) in DMEM plus BSA (2.5 mg/ml) was mixed with an appropriate concentration of the compound to be tested and the mixture was added to peptide coated dishes and incubated for 1 hr. at 37° C. Generally 100, 20, 5 and 1.25 μM concentrations of the compound were tested.
Following this incubation the plates were washed once with PBS and the attached cells were fixed with 3% paraformaldehyde in PBS and stained with 0.5% toluidine blue in 3.7% formaldehyde. The cells were stained overnight at room temperature and the optical density at 590 nm of toluidine blue stained cells was determined using a vertical pathway spectrophotometer to quantitate attachment (VMAX Kinetic Microplate Reader, Molecular Devices, Menlo Park, Calif.). This procedure is a modification of a previously published method (Cardarelli et al, J. Biol. Chem., 269:18668-18673 (1994) and Cardarelli et al, Proc. Natl. Acad. Sci. USA, 83:2647-2651 (1986)).

Structure (SMILES) | IC50 [1] [nM] | IC50 [2] [nM]
COC(=O)[C@H](Cc1ccc(NC(=O)c2c(Cl)cccc2Cl)cc1)NC(=O)[C@H]1CSCN1C(=O)OC(C)(C)C (relative stereo) [Example 1, [S-(R*,R*)]-4-[[[1-[[4-[(2,6-Dichlorobenzoyl)amino]phenyl]methyl]-2-methoxy-2-oxoethyl]amino]carbonyl]-3-thiazolidinecarboxylic Acid 3-(1,1-Dimethylethyl)ester] | ≥ 1000 | 50 to 750
CCOC(=O)N1CSC[C@H]1C(=O)N[C@@H](Cc1ccc(NC(=O)c2c(Cl)cccc2Cl)cc1)C(=O)OC (relative stereo) [Example 15, [R-(R*,S*)]-4-[[[1-[[4-[(2,6-Dichlorobenzoyl)amino]phenyl]methyl]-2-methoxy-2-oxoethyl]amino]carbonyl]-3-thiazolidinecarboxylic Acid 3-Ethyl Ester] | ≥ 1000 | ≥ 750
COC(=O)[C@H](Cc1ccc(NC(=O)c2c(Cl)cccc2Cl)cc1)NC(=O)[C@H]1N(C(=O)OC(C)(C)C)CSC1(C)C (relative stereo) [Example 17, [R-(R*,S*)]-4-[[[1-[[4-[(2,6-Dichlorobenzoyl)amino]phenyl]methyl]-2-methoxy-2-oxoethyl]amino]carbonyl]-5,5-dimethyl-3-thiazolidinecarboxylic Acid 3-(1,1-Dimethylethyl)ester] | ≥ 1000 | ≥ 750
COC(=O)[C@H](Cc1ccc(NC(=O)c2c(Cl)cccc2Cl)cc1)NC(=O)[C@H]1CSCN1C(=O)OCC1c2ccccc2-c2ccccc21 (relative stereo) [Example 18] | ≥ 1000 | ≥ 750
COC(=O)[C@H](Cc1ccc(NC(=O)c2c(Cl)cccc2Cl)cc1)NC(=O)[C@H]1CSCN1C(=O)OCc1ccccc1 (relative stereo) [Example 20, [S-(R*,R*)]-4-[[[1-[[4-[(2,6-Dichlorobenzoyl)amino]phenyl]methyl]-2-methoxy-2-oxoethyl]amino]carbonyl]-3-thiazolidinecarboxylic Acid 3-Phenylmethyl Ester] | ≥ 1000 | ≥ 750
COC(=O)[C@H](Cc1ccc(NC(=O)c2c(Cl)cccc2Cl)cc1)NC(=O)[C@H]1CSCN1C(=O)OC12CC3CC(CC(C3)C1)C2 (relative stereo) [Example 22, [S-(R*,R*)]-4-[[[1-[[4-[(2,6-Dichlorobenzoyl)amino]phenyl]methyl]-2-methoxy-2-oxoethyl]amino]carbonyl]-3-thiazolidinecarboxylic Acid 3-(Tricyclo[3.3.1.1^3,7]dec-1-yl)ester] | ≥ 1000 | ≥ 750

The remaining lines, values ahead:

IC50 [1] [nM] | IC50 [2] [nM] | Structure (SMILES)
≤ 250 | ≤ 50 | CCOC(=O)N1CSC[C@@H]1C(=O)N[C@@H](Cc1ccc(NC(=O)c2c(Cl)cccc2Cl)cc1)C(=O)OC (relative stereo) [Example 4, [S-(R*,R*)]-4-[[[1-[[4-[(2,6-Dichlorobenzoyl)amino]phenyl]methyl]-2-methoxy-2-oxoethyl]amino]carbonyl]-3-thiazolidinecarboxylic Acid 3-Ethyl Ester]
250 to 1000 | 50 to 750 | COC(=O)[C@H](Cc1ccc(OCc2c(Cl)cccc2Cl)cc1)NC(=O)[C@H]1CSCN1C(=O)OCCN1CCCCC1 (relative stereo) [Example 5, [S-(R*,R*)]-4-[[[1-[4-[(2,6-Dichlorophenyl)methoxy]phenyl)methyl]-2-methoxy-2-oxoethyl]amino]carbonyl]-3-thiazolidinecarboxylic Acid 3-[2-(1-piperidinyl)ethyl]ester]
250 to 1000 | 50 to 750 | COC(=O)CCC(=O)N1CSC[C@@H]1C(=O)N[C@@H](Cc1ccc(NC(=O)c2c(Cl)cccc2Cl)cc1)C(=O)OC (relative stereo) [Example 8, [S-(R*,R*)]-4-[[[1-[[4-[(2,6-Dichlorobenzoyl)amino]phenyl]methyl]-2-methoxy-2-oxoethyl]amino]carbonyl]-γ-oxo-3-thiazolidinebutanoic Acid 3-Methyl Ester]
≤ 250 | ≤ 50 | O=C(O)CCC(=O)N1CSC[C@@H]1C(=O)N[C@@H](Cc1ccc(NC(=O)c2c(Cl)cccc2Cl)cc1)C(=O)O (relative stereo) [Example 9, [S-(R*,R*)]-4-[[[1-Carboxy-2-[4-[(2,6-dichlorobenzoyl)amino]phenyl]ethyl]amino]carbonyl]-γ-oxo-3-thiazolidinebutanoic Acid]
≤ 250 | ≤ 50 | CC(C)(C)OC(=O)N1CSC[C@@H]1C(=O)N[C@@H](Cc1ccc(NC(=O)c2c(Cl)cccc2Cl)cc1)C(=O)O (relative stereo) [Example 10, [S-(R*,R*)]-4-[[[1-Carboxy-2-[4-[(2,6-dichlorobenzoyl)amino]phenyl]ethyl]amino]carbonyl]-3-thiazolidinecarboxylic Acid 3-(1,1-Dimethylethyl)ester]
≤ 250 | 50 to 750 | CCOC(=O)N1CSC[C@H]1C(=O)N[C@@H](Cc1ccc(NC(=O)c2c(Cl)cccc2Cl)cc1)C(=O)O (relative stereo) [Example 16, [R-(R*,S*)]-4-[[[1-Carboxy-2-[4-[(2,6-dichlorobenzoyl)amino]phenyl]ethyl]amino]carbonyl]-3-thiazolidinecarboxylic Acid 3-Ethyl Ester]
≤ 250 | 50 to 750 | O=C(Nc1ccc(C[C@H](NC(=O)[C@H]2CSCN2C(=O)OCC2c3ccccc3-c3ccccc32)C(=O)O)cc1)c1c(Cl)cccc1Cl (relative stereo) [Example 19]
≤ 250 | 50 to 750 | O=C(Nc1ccc(C[C@H](NC(=O)[C@H]2CSCN2C(=O)OCc2ccccc2)C(=O)O)cc1)c1c(Cl)cccc1Cl (relative stereo) [Example 21, [S-(R*,R*)]-4-[[[1-Carboxy-2-[4-[(2,6-dichlorobenzoyl)amino]phenyl]ethyl]amino]carbonyl]-3-thiazolidinecarboxylic Acid 3-Phenylmethyl Ester]
≤ 250 | ≤ 50 | O=C(Nc1ccc(C[C@H](NC(=O)[C@H]2CSCN2C(=O)OC23CC4CC(CC(C4)C2)C3)C(=O)O)cc1)c1c(Cl)cccc1Cl (relative stereo) [Example 23, [S-(R*,R*)]-4-[[[1-Carboxy-2-[4-[(2,6-dichlorobenzoyl)amino]phenyl]ethyl]amino]carbonyl]-3-thiazolidinecarboxylic Acid 3-(Tricyclo[3.3.1.1^3,7]dec-1-yl)ester]
